Here are results for two compounds from patent US9914760B2, “Methods of identifying, isolating and using odorant and aroma receptors” (Firmenich SA, priority 2013, dated 2018).

Structures are written as SMILES.

Holding throughout (parameters): species or system mouse
Test [1] relates to Olfr740. Briefly: cell-based cAMP assay (HTRF), HEK293T co-transfected with Gαolf. As to conditions: increasing concentrations; FIGS. 5A-5D. An excerpt:
(§1) The activity of candidate mouse receptors Olfr740 (SEQ ID NO: 1 and SEQ ID NO: 2), Olfr743 (SEQ ID NO: 5 and SEQ ID NO: 6), and Olfr746 (SEQ ID NO: 37 and SEQ ID NO: 38) to both indole and skatole malodors were confirmed in cell-based cAMP assays. In FIGS. 5A and 5B, FLAG Rho-tagged (SEQ ID 18) Olfr743 (SEQ ID NO: 6) and Olfr740 (SEQ ID NO: 2) cDNA sequences were co-transfected with Gαolf (SEQ ID NO: 21) and exposed to increasing concentrations of indole (left) or skatole (right). FIGS. 5C and 5D are repeat experiments showing similar activity of Olfr740 (SEQ ID NO: 2) with Olfr743 (SEQ ID NO: 6) with indole and skatole. In FIG. 5E, the FLAG Rho-tagged (SEQ ID 18) Olfr746 (SEQ ID NO: 38) cDNA sequence was co-transfected with Gαolf (SEQ ID NO: 21) and exposed to increasing concentrations of indole or skatole. Odorant-induced activity was detected by measuring cAMP levels in the cytosol using the HTRF approach (CisBio kit). […] Co-transfection of HEK cells with Gαolf (SEQ ID NO: 21) alone (no receptor) were used as controls for non-specific activity (control). Activity is defined as the baseline corrected HTRF ratios normalized to the highest signal in the experiment. […] All three receptors show specific dose dependent activity to the malodor compounds and, as such, validate the process for identifying receptors for these compounds. Mouse receptors Olfr740 (SEQ ID NO: 1 and SEQ ID NO: 2) and Olfr743 (SEQ ID NO: 5 and SEQ ID NO: 6) were identified from isolated olfactory neurons that responded to both indole and skatole. Mouse receptor Olfr746 (SEQ ID NO: 37 and SEQ ID NO: 38) was identified in silico by database mining using Olfr740 (SEQ ID NO: 2) and Olfr743 (SEQ ID NO: 6) as query sequences. The receptors are modified at their N-terminus with the FLAG tag and the first 20 amino acids of the bovine rhodopsin receptor (SEQ ID 18), transiently expressed in HEK 293T cells, and stimulated separately with indole and skatole to confirm their identity as bona fide indole/skatole receptors. Co-expression of the human G alpha subunit Gαolf (SEQ ID NO: 21) activates the Gs transduction pathway that leads to an internal cAMP increase upon binding to the appropriate ligand.
(cAMP levels reflect the balance of adenylyl cyclase and phosphodiesterase activity.)

The test system of the next test is Olfr746. The test is described as above. As to conditions: increasing concentrations; FIG. 5E.
Description: as §1

In another test the test system is Olfr665. Nature of the test: cell-based calcium-flux assay, HEK293T with Gα15. The note with it: dose-response curves FIG. 6D-J. An excerpt:
(§2) The activity of candidate human indole and skatole malodors receptors OR52N2 (SEQ ID NO: 11 and SEQ ID NO: 12), OR11G2 (SEQ ID NO: 13 and SEQ ID NO: 14, OR5AC2 (SEQ ID NO: 75 and SEQ ID NO: 76), OR4C15 (SEQ ID NO: 79 and SEQ ID NO: 80), OR8S1 (SEQ ID NO: 83 and SEQ ID NO: 84), OR11H6 (SEQ ID NO: 15 and SEQ ID NO: 16) and OR11H4 (SEQ ID NO: 49 and SEQ ID NO: 50) and candidate mouse indole and skatole malodors receptors Olfr665 (SEQ ID NO: 9 and SEQ ID NO 10) and Olfr740 (SEQ ID NO: 1 and SEQ ID NO 2) were confirmed in cell-based calcium-flux assays (FIGS. 6A to 6J). Cells stably co-expressing Rho-tagged human OR52N2 (FIG. 6A, B) or OR11G2 (FIG. 6C) and Gα15 (SEQ ID NO: 25) were exposed to increasing concentrations of skatole or indole. FIG. 6B is a repeat experiment showing similar activity of OR52N2 with indole and skatole. Odorant-induced OR52N2 or OR11G2 activity was detected by measuring the maximum Calcium 5 dye (Molecular Devices) fluorescence change following odorant exposure. Activity is defined as the baseline corrected Relative Fluorescent Units (RFU) ratios normalized to the highest RFU in the experiment in FIG. 6A. […] A cell line lacking a receptor, for example hOR52N2, was used as a control for non-specific activity at high concentrations (‘Indole control’ and ‘Skatole control’). The human receptor OR52N2 (SEQ ID NO: 11 and SEQ ID NO: 12) was identified because of its sequence similarity to mouse Olfr665 (SEQ ID NO: 10), an indole/skatole receptor isolated from olfactory neurons responding to both indole and skatole. The human receptor OR11G2 (SEQ ID NO: 13 and SEQ ID NO: 14) was identified because of its sequence similarity to mouse Olfr740 (SEQ ID NO: 2), an indole/skatole receptor isolated from olfactory neurons responding to both indole and skatole. The receptors were modified with the Rho sequence and stably expressed in HEK 293T cells. Further examples show indole and skatole dose-response curves for human receptors OR5AC2, OR4C15, OR8S1, OR11H6, OR11H4 and mouse receptors Olfr665 and Olfr740 (FIG. 6D-J). The human receptor OR5AC2 (SEQ ID NO: 75 and SEQ ID NO: 76) was identified because of its sequence similarity to mouse Olfr207 (SEQ ID NO: 78), a receptor isolated from olfactory neurons responding to both indole and skatole. The human receptor OR4C15 (SEQ ID NO: 79 and SEQ ID NO: 80) was identified because of its sequence similarity to mouse Olfr211 (SEQ ID NO: 82), a receptor isolated from olfactory neurons responding to both indole and skatole. The human receptor OR8S1 (SEQ ID NO: 83 and SEQ ID NO: 84) was identified because of its sequence similarity to mouse Olfr257 (SEQ ID NO: 86), a receptor isolated from olfactory neurons responding to both indole and skatole. […]

Test [2] concerns Olfr740. Briefly: cell-based calcium-flux assay, HEK293T with Gα15. The note with it: dose-response curves FIG. 6D-J.
Description: as §2

Take `c1ccc2[nH]ccc2c1` [indole]: the “receptor activity (cAMP, HTRF)” value in the test on Olfr740 [1] and in the test with Olfr746 was “dose-dependent increase of receptor activity” in each case. Besides, the “receptor activation in vitro” value in the test on Olfr665 and in the test on Olfr740 [2] was “activated” each time.
Regarding `Cc1c[nH]c2ccccc12` [skatole, 3-methyl indole], the “receptor activity (cAMP, HTRF)” value with Olfr740 [1] and in the test with Olfr746 was “dose-dependent increase of receptor activity” in each case. The “receptor activation in vitro” value in the test with Olfr665 and in the test on Olfr740 [2] was “activated” throughout.
